# In PMC7618597, “Dual Nurr1/RXR agonism of valerenic acid and synthetic mimetics enables dimer-selective Nurr1 modulation” (ACS medicinal chemistry letters, 2025):
# Experiments:
# RXRβ = target: T1, RXRβ (Homo sapiens, UniProt P28702); assay: Gal4-hybrid reporter gene assay, RXRβ; assay type: cell-based; settings: Gal4-hybrid reporter gene assay; for EC50: mean±S.E.M., n≥3
# T1 construct: CMV-hRXRβ-LBD; expressed in transfected cells; host or cells: HEK293T
# T1 sequence (P28702 296-529 limits assumed): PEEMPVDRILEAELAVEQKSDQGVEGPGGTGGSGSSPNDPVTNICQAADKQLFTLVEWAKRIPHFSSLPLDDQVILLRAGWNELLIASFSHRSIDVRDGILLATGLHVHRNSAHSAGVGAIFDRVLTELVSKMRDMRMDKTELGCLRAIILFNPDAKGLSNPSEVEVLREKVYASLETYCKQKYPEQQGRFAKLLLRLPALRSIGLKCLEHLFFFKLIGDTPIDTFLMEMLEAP
# Protocol: modified Eagle’s medium (DMEM), high glucose supplemented with 10% fetal calf serum (FCS), sodium pyruvate (1 mM), penicillin (100 U/mL), and streptomycin (100 μg/mL) at 37 °C and 5% CO2 and seeded in 96-well plates (3×10^4 cells/well). After 24 h, the medium was changed to Opti-MEM without supplements, and the cells were transiently transfected using Lipofectamine LTX reagent (Invitrogen) according to the manufacturer’s protocol. Five hours after transfection, the cells were incubated with the test compounds in Opti-MEM supplemented with penicillin (100 U/mL), streptomycin (100 μg/mL), and 0.1% DMSO for 15 h before luciferase activity was measured using the Dual -Glo Luciferase Assay System (Promega) according to the manufacturer’s protocol on a Tecan Spark l uminometer (Tecan Deutschland GmbH, Germany). Firefly luminescence was divided by Renilla luminescence and multiplied by 1000, resulting in relative light units (RLU) to normalize for transfection efficiency and cell growth. Fold activation was obtained by dividing the mean RLU of a sample by the mean RLU of the untreated control. All samples were tested in at least three biologically independent experiments in duplicates. For dose –response curve fitting and calculation of EC50 values, the equation “[Agonist] vs. response – Variable slope (four parameters)” was used in GraphPad Prism (version 5.04, GraphPad Software, La Jolla, CA, USA). […] (10 μM, NR4A) and bexarotene (1 µM, NR2B) served as the positive control. […]
# 150 μM in the same buffer containing 2-4% DMSO) in 21–26 injections (1 × 1 μL and 20 × 4 to 25 × 4 μL) with an injection interval of 120 s. As control experiments, the test compounds were titrated to the buffer, and the buffer was titrated to the protein under otherwise identical conditions. The heat rates of the compound-Nurr1 LBD titrations were analyzed using NanoAnalyze software (TA Instruments, New Castle, DE) with an independent binding model.
# HEK293T cells = assay: Multiplex toxicity assay; assay type: cell-based; settings: for toxicity at the test concentrations of the gene expression study: 2 (10 μM), 3 (1 μM), multiplex toxicity assay; for concentration at which toxic effects start: HEK293T cells, confluence, metabolic activity, pyknosis, necrosis, n=4
# Protocol: page 9: and 20 s of elongation at 68 °C. PCR product specificity was evaluated using a melting curve analysis ranging from 65 to 95 °C. Nurr1 target gene expression was normalized to rGAPDH mRNA expression per sample using the ΔCt-method. The following primers and annealing temperatures were used: rGAPDH (59.4 °[…]); rTH (59.4 °C): 5'-[…]); rFLRT2 (59.0 °C): 5'-[NT]); rSESN3 (62.4 °C): […]); rCRMP4 (58.0 °C): […]); rBDNF (58.0 °C): 5'-[NT]); rBIRC5 (59.4 °C): 5'-[…]); rCCND2 (59.0 °C): [NT]); rXIAP (61.1 °C): […]); rSOD2 (59.4 °C): [NT]). Multiplex toxicity assay. HEK293T cells were grown in DMEM high glucose, supplemented with 10% FCS, sodium pyruvate (1 mM), penicillin (100 U/mL), and streptomycin (100 μg/mL) at 37 °C and 5% CO2. The day before experiment, cells were seeded in 96-well plates (2 × 10^4 cells per well) in culture medium with reduced serum content (0.2%). The next day, medium was changed, maintaining the low serum content and additionally containing 0.1% DMSO with 2 (1 or 10 μM) or 3 ([…]), 0.1% DMSO with bexarotene (100 μM) or flavopiridol (100 μM) as positive controls, or 0.1% DMSO alone as untreated control. Each sample was prepared in 4 biologically independent replicates. After incubation for 24 h, the medium was changed to 90 μL culture medium without phenol red (0.2% FCS) and 10 μL Cell Counting Kit- 8 solution (CCK-8, MedChem Express #HY-[…]), and absorbance was measured after 2 h incubation at 450 nm on a Tecan Spark Cyto (Tecan Group AG) to assess metabolic activity of the cells. Thereafter, Hoechst33342 (10 μM, #ab228551, Abcam Limited, Cambridge, UK) and Live-or-Dye Nuc-Fix Red (0.05×, Biotium, Inc., Fremont, CA, 1691 USA) were added and incubated for 30 min to detect pyknosis and cellular necrosis, respectively. After incubation, a total of 3 fluorescence images per well at 10× magnification was taken to detect Hoechst33342-positive cell nuclei (Ex: 381-400 nm, Em: 414-450 nm) and Live-or- Dyepositive cells (Ex: 543-566 nm, Em: 580-611 nm), respectively, using a Tecan Spark Cyto (Tecan Group AG). Necrotic cells were counte d using CellProfiler (Version 4.2.6). Reference readings for background correction and detection of autofluorescence were taken at the same wavelengths prior to staining. Before drug administration, after the first medium exchange, 24 h after drug administration, and after fluorescence imaging cell confluence was assessed using the Tecan Spark Cyto, to account for changes in cell confluence due to drug administration and cell handling. Pyknosis was defined via a cutoff range describing the significant shift of Hoechst33342-positive signal per nuclear area in bexarotene vs. vehicle treated cells. The mean intensity/area values for each well were further normalized to the […] increment of pyknosis. […]
Compound,max. act. (RXR) β (RXRβ) [fold],EC50 (RXRβ) [nM],toxicity at the test concentrations of the gene expression study (HEK293T cells),concentration at which toxic effects start (HEK293T cells) [µM]
Cc1c(C)n(-c2ccc(CC(=O)O)cc2)c2ccc(F)cc12 [compound 3],103±6,600,non-toxic,10
Cc1c2c(n(-c3ccc(CC(=O)O)cc3)c1C)CCC(F)(F)C2 [compound 2],121±6,4500,non-toxic,> 30
